Source: ChEMBL document CHEMBL1201862, “PubChem BioAssay data set” (2004)
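All cell lines were grown in 96-well plates and treated with compound for 48 hours. GI50 is the concentration that inhibits growth by half.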 Active and inactive are the calls of the source. Rule as the data show it: active = GI50 up to about 1.1 µM and inactive = higher.

Experiments:
Assay in all cases: NCI-60 cell line screen, 48 h
SN12C = tested on: SN12C
SF-539 = tested on: SF-539
M14 = tested on: M14
DLD-1 = tested on: DLD-1
LOX IMVI = tested on: LOX IMVI
SF-268 = tested on: SF-268
HT-29 = tested on: HT-29
SNB-75 = tested on: SNB-75
HOP-92 = tested on: HOP-92
NCI-H23 = tested on: NCI-H23
SF-295 = tested on: SF-295
UACC-257 = tested on: UACC-257
SNB-19 = tested on: SNB-19
Malme-3M = tested on: Malme-3M
EKVX = tested on: EKVX
HL-60 = tested on: HL-60
MDA-MB-435 = tested on: MDA-MB-435
MDA-N = tested on: MDA-N
MDA-MB-231 = tested on: MDA-MB-231
BT-549 = tested on: BT-549

SMILES	GI50 (SN12C)	GI50 (SF-539)	GI50 (M14)	GI50 (DLD-1)	GI50 (LOX IMVI)	GI50 (SF-268)	GI50 (HT-29)	GI50 (SNB-75)	GI50 (HOP-92)	GI50 (NCI-H23)	GI50 (SF-295)	GI50 (UACC-257)	GI50 (SNB-19)	GI50 (Malme-3M)	GI50 (EKVX)	GI50 (HL-60)	GI50 (MDA-MB-435)	GI50 (MDA-N)	GI50 (MDA-MB-231)	GI50 (BT-549)
C=CC(=O)N1C/C(=C\c2ccc(Cl)c(Cl)c2)C(=O)/C(=C/c2ccc(Cl)c(Cl)c2)C1	0.155 µM (active)	0.181 µM (active)	0.226 µM (active)	0.0374 µM (active)	0.288 µM (active)	0.104 µM (active)	0.0673 µM (active)	0.187 µM (active)	1.19 µM (inactive)	0.2 µM (active)	0.233 µM (active)	0.474 µM (active)								
Cc1ccc(C(c2c(O)c3ccccc3n(-c3ccccc3)c2=O)c2c(O)c3ccccc3n(-c3ccccc3)c2=O)cc1	> 100 µM (inactive)	> 100 µM (inactive)		> 100 µM (inactive)	> 100 µM (inactive)	82.2 µM (inactive)			> 100 µM (inactive)	> 100 µM (inactive)			> 100 µM (inactive)	> 100 µM (inactive)	35.3 µM (inactive)					
COc1ccc(-c2c(N)[n+]([O-])c3ccccc3[n+]2[O-])cc1OC	> 100 µM (inactive)	> 100 µM (inactive)	> 100 µM (inactive)	> 100 µM (inactive)		> 100 µM (inactive)	> 100 µM (inactive)	65.9 µM (inactive)	> 100 µM (inactive)	> 100 µM (inactive)	> 100 µM (inactive)	> 100 µM (inactive)	> 100 µM (inactive)	> 100 µM (inactive)	> 100 µM (inactive)	> 100 µM (inactive)				
CN(C)c1ccc(C(=C(c2ccc(N(C)C)cc2)c2ccc(N(C)C)cc2)c2ccc(N(C)C)cc2)cc1	16.2 µM (inactive)	13.8 µM (inactive)	6.62 µM (inactive)	16.1 µM (inactive)	13.5 µM (inactive)	21.5 µM (inactive)	13.8 µM (inactive)	13.5 µM (inactive)		17 µM (inactive)	13.9 µM (inactive)	17.3 µM (inactive)	13.8 µM (inactive)	15 µM (inactive)	18.7 µM (inactive)	5.36 µM (inactive)				
Cn1c2ccccc2c2cc(-c3ccccc3)c3c(c21)C(=O)c1ccccc1C3=O	28.6 µM (inactive)	22.9 µM (inactive)	14.3 µM (inactive)	13.3 µM (inactive)		19.1 µM (inactive)	31.9 µM (inactive)	34.4 µM (inactive)	12.3 µM (inactive)	5.79 µM (inactive)	21.5 µM (inactive)	18 µM (inactive)	61.1 µM (inactive)	22.3 µM (inactive)	> 10 µM (inactive)	9.35 µM (inactive)				
COc1ccccc1NC(=O)CC(=O)N/N=C/c1ccc(N(CCC#N)S(=O)(=O)c2ccccc2)cc1			> 100 µM (inactive)	> 100 µM (inactive)	> 100 µM (inactive)	> 100 µM (inactive)	> 100 µM (inactive)	> 100 µM (inactive)	> 100 µM (inactive)	> 100 µM (inactive)	> 100 µM (inactive)	> 100 µM (inactive)	> 100 µM (inactive)	> 100 µM (inactive)	> 100 µM (inactive)	> 100 µM (inactive)				
Cc1ccc([N+](=O)[O-])cc1NC(=O)C(=O)Cc1nc2ccc(C(=O)c3ccccc3)cc2nc1O	> 100 µM (inactive)	> 100 µM (inactive)	> 100 µM (inactive)	> 100 µM (inactive)	> 100 µM (inactive)		> 100 µM (inactive)	56.5 µM (inactive)	42.2 µM (inactive)	> 100 µM (inactive)	> 100 µM (inactive)	> 100 µM (inactive)	> 100 µM (inactive)	> 100 µM (inactive)	> 100 µM (inactive)	> 100 µM (inactive)				
COC(=O)C12C3C4C1C1C2C3C41C(=O)N(C(C)C)C(C)C (centres undefined)	> 100 µM (inactive)	> 100 µM (inactive)	> 100 µM (inactive)	> 100 µM (inactive)		> 100 µM (inactive)	> 100 µM (inactive)	50.2 µM (inactive)	> 100 µM (inactive)	> 100 µM (inactive)	> 100 µM (inactive)	> 100 µM (inactive)	> 100 µM (inactive)	> 100 µM (inactive)	> 100 µM (inactive)	> 100 µM (inactive)				
O=C(CC1(O)C(=O)Nc2ccc([N+](=O)[O-])cc21)c1ccc(Br)cc1 (centres undefined)	> 100 µM (inactive)	59.4 µM (inactive)	> 100 µM (inactive)	45.3 µM (inactive)	60.4 µM (inactive)	55.1 µM (inactive)	> 100 µM (inactive)	23.3 µM (inactive)		40.6 µM (inactive)	52.6 µM (inactive)	69.8 µM (inactive)	44.3 µM (inactive)	> 100 µM (inactive)	> 100 µM (inactive)	18.6 µM (inactive)				
COC(=O)/C=C\C(C#N)(C#N)/N=C/c1cc(Br)cs1	3.18 µM (inactive)	4.8 µM (inactive)	2.51 µM (inactive)		2.06 µM (inactive)	6.1 µM (inactive)	1.94 µM (inactive)	16.2 µM (inactive)	2.19 µM (inactive)	5.33 µM (inactive)	17.9 µM (inactive)	2.67 µM (inactive)	18.5 µM (inactive)	1.71 µM (inactive)	7.45 µM (inactive)	0.0465 µM (active)	2.38 µM (inactive)	2.67 µM (inactive)	9.35 µM (inactive)	7.08 µM (inactive)
COc1ccc2c(c1OC)C(=O)c1cnccc1C2=O	> 100 µM (inactive)	> 100 µM (inactive)	> 100 µM (inactive)	> 100 µM (inactive)	> 100 µM (inactive)		> 100 µM (inactive)	> 100 µM (inactive)	> 100 µM (inactive)	> 100 µM (inactive)	> 100 µM (inactive)	> 100 µM (inactive)	> 100 µM (inactive)	> 100 µM (inactive)	> 100 µM (inactive)	> 100 µM (inactive)				
CCCCN(CCCC)CC(C(=O)Nc1ccc([N+](=O)[O-])cc1[N+](=O)[O-])/C(C)=N\NC(=O)c1ccncc1 (centres undefined)	> 100 µM (inactive)	> 100 µM (inactive)	> 100 µM (inactive)	> 100 µM (inactive)	> 100 µM (inactive)	> 100 µM (inactive)		76.6 µM (inactive)	90.6 µM (inactive)	> 100 µM (inactive)	> 100 µM (inactive)	> 100 µM (inactive)	> 100 µM (inactive)	> 100 µM (inactive)	> 100 µM (inactive)	> 100 µM (inactive)				
C[C@@]12C(=O)OC(=O)[C@]1(C)[C@H]1CC[C@@H]2O1 [CANTHARIDIN]	2.01 µM (inactive)	2.04 µM (inactive)	1.7 µM (inactive)		2.23 µM (inactive)	1.77 µM (inactive)	1.66 µM (inactive)	0.472 µM (active)	0.61 µM (active)	5.07 µM (inactive)	1.37 µM (inactive)	2.65 µM (inactive)	1.1 µM (active)	1.34 µM (inactive)	0.45 µM (active)	1.63 µM (inactive)	1.89 µM (inactive)	2.91 µM (inactive)	1.33 µM (inactive)	1.7 µM (inactive)
